In assay [1] the target is T1, SFRP-1 (Homo sapiens, UniProt Q8N474).
T1 sequence (Q8N474 32-314): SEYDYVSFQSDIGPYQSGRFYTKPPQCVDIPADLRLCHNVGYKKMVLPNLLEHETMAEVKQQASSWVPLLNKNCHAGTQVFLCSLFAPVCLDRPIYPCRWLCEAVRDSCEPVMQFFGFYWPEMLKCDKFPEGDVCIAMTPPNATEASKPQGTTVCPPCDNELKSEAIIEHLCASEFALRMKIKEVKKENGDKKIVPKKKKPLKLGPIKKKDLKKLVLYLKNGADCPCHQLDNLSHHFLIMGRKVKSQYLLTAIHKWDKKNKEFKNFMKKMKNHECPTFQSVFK
The assay can be described thus: Cell-based assay for in vitro measurement of SFRP-1/SARP2 antagonist activity (U2OS cells co-transfected with 16x TCF-tk-Luciferase reporter, Wnt and hSFRP-1).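 As to all read-outs here: U2OS cells co-transfected with a TCF-tk luciferase reporter, a Wnt vector, hSFRP-1 or empty vector and CMV-βgal, luciferase luminescence read in cell lysates alongside βgal activity.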 Conditions: for fold induction at 10 µM: U2OS, read-out: Fold Induction with SFRP-1, U2OS cells, single dose 10 μM, luciferase reporter, fold induction over SFRP-1 control. Background: In a reporter assay the amount or activity of a reporter protein is the signal.

In assay [2] the target is T1, SFRP-1. The assay can be described thus: Fluorescence polarization binding assay (competitive displacement of a probe compound from SFRP-1).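 Also: test compound competes with a fluorescent probe held by SFRP-1, seen as a drop in probe anisotropy after incubation in darkness, with anisotropy as function of rising compound dose.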 Conditions: fluorescence anisotropy, 45 nM SFRP-1, 20 nM probe. In general terms: Polarisation of emitted light reports the rotation of a fluorescent probe.

pEC50, pIC50: −log10 of the molar value. Counter-ions that a name gives are not always drawn.

Results on 25 molecules are retold here after patent publication US20060276464A1, “Diarylsulfone sulfonamides and use thereof” (Wyeth, priority 2005, published 2006).

The pIC50 is the negative decadic logarithm of the IC50, by convention in mol/L. Usually pEC50 stands for the negative decadic logarithm of the EC50, by convention in mol/L. Higher therefore signals a small EC50.

`O=S(=O)(N[C@@H]1CCCNC1)c1cc(S(=O)(=O)c2ccccc2)ccc1C(F)(F)F` [Example 791, 5-(phenylsulfonyl)-N-[(3R)-piperidin-3-yl]-2-(trifluoromethyl)benzenesulfonamide]: the fold induction at 10 µM on SFRP-1 [1] came to 3.8. For the same molecule, the negative-log IC50 (pIC50) on SFRP-1 [2] is 5.52.

As for `Cc1cc2cc(S(=O)(=O)c3ccc(C(F)(F)F)c(S(=O)(=O)NC4CCNCC4)c3)ccc2n1C` [Example 792, 5-[(1,2-dimethyl-1H-indol-5-yl)sulfonyl]-N-piperidin-4-yl-2-(trifluoromethyl)benzenesulfonamide], at SFRP-1 [1], the negative logarithm of the EC50 (pEC50) is 5.64 and the fold induction at 10 µM was 1.4. The molecule further showed a negative-log IC50 (pIC50) on SFRP-1 [2] of 6.70.

With `CN(CCNS(=O)(=O)c1cc(S(=O)(=O)c2ccccc2)ccc1C(F)(F)F)C(=O)OC(C)(C)C` [Example 793, tert-Butyl methyl[2-({[5-(phenylsulfonyl)-2-(trifluoromethyl)phenyl]sulfonyl}amino)ethyl]carbamate], on SFRP-1 [1], the pEC50 is 5.81 and the fold induction at 10 µM came to 2.5. The molecule further gave a negative-log IC50 (pIC50) at SFRP-1 [2] of 6.22.

As for `CC(C)(C)OC(=O)N1CC[C@H](NS(=O)(=O)c2cc(S(=O)(=O)c3ccccc3)ccc2C(F)(F)F)C1` [Example 794, tert-butyl(3S)-3-({[5-(phenylsulfonyl)-2-(trifluoromethyl)phenyl]sulfonyl}amino)pyrrolidine-1-carboxylate], at SFRP-1 [1], the pEC50 is 6.27 and the fold induction at 10 µM was 3.3. Further, the pIC50 at SFRP-1 [2] is 7.00.

As for `CC(C)(C)OC(=O)N1CC[C@@H](NS(=O)(=O)c2cc(S(=O)(=O)c3ccccc3)ccc2C(F)(F)F)C1` [Example 795, tert-butyl(3R)-3-({[5-(phenylsulfonyl)-2-(trifluoromethyl)phenyl]sulfonyl}amino)pyrrolidine-1-carboxylate], at SFRP-1 [1], the pEC50 is 6.85 and the fold induction at 10 µM is 3.8. The pIC50 at SFRP-1 [2] was 7.10.

On to `O=S(=O)(N[C@H]1CCNC1)c1cc(S(=O)(=O)c2ccccc2)ccc1C(F)(F)F` [Example 796, 5-(phenylsulfonyl)-N-[(3S)-pyrrolidin-3-yl]-2-(trifluoromethyl)benzenesulfonamide], for which, at SFRP-1 [1], the pEC50 was 5.87 and the fold induction at 10 µM amounted to 4.3. The same molecule showed a negative-log IC50 (pIC50) at SFRP-1 [2] of 6.22.

On to `O=S(=O)(N[C@@H]1CCNC1)c1cc(S(=O)(=O)c2ccccc2)ccc1C(F)(F)F` [Example 797, 5-(phenylsulfonyl)-N-[(3R)-pyrrolidin-3-yl]-2-(trifluoromethyl)benzenesulfonamide], for which the fold induction at 10 µM at SFRP-1 [1] came out at 3.5. At SFRP-1 [2], this molecule gave a pIC50 of 6.10.

As for `Cc1ccc(S(=O)(=O)c2ccccc2)cc1S(=O)(=O)NC1CCSCC1` [Example 798, 2-methyl-5-(phenylsulfonyl)-N-(tetrahydro-2H-thiopyran-4-yl)benzenesulfonamide], the fold induction at 10 µM on SFRP-1 [1] turned out to be 1.8. The negative logarithm of the IC50 (pIC50) at SFRP-1 [2] was 5.40.

Turning to `CNCCNS(=O)(=O)c1cc(S(=O)(=O)c2ccccc2)ccc1C(F)(F)F` [Example 799, N-[2-(Methylamino)ethyl]-5-(phenylsulfonyl)-2-(trifluoromethyl)benzenesulfonamide hydrochloride], the fold induction at 10 µM on SFRP-1 [1] was 2.2. Further, the pIC50 on SFRP-1 [2] was 5.10.

As for `O=C(c1ccccc1)c1ccc(C(=O)N2CCC(NS(=O)(=O)c3cc(S(=O)(=O)c4ccccc4)ccc3C(F)(F)F)CC2)cc1` [Example 800, N-[1-(4-benzoylbenzoyl)piperidin-4-yl]-5-(phenylsulfonyl)-2-(trifluoromethyl)benzenesulfonamide], on SFRP-1 [1], the negative-log EC50 (pEC50) is 6.13 and the fold induction at 10 µM was 3.6. Moreover, at SFRP-1 [2], the pIC50 was 6.40.

As to `O=C(c1ccccc1)c1cccc(C(=O)N2CCC(NS(=O)(=O)c3cc(S(=O)(=O)c4ccccc4)ccc3C(F)(F)F)CC2)c1` [Example 801, N-[1-(3-benzoylbenzoyl)piperidin-4-yl]-5-(phenylsulfonyl)-2-(trifluoromethyl)benzenesulfonamide], on SFRP-1 [1], the pEC50 is 5.97 and the fold induction at 10 µM was 3.4. Further, the negative-log IC50 (pIC50) at SFRP-1 [2] is 6.74.

Consider `O=S(=O)(NCCc1cccnc1)c1cc(S(=O)(=O)c2ccc(O)cc2)ccc1C(F)(F)F` [Example 814, 5-[(4-hydroxyphenyl)sulfonyl]-N-(2-pyridin-3-ylethyl)-2-(trifluoromethyl)benzenesulfonamide], for which, at SFRP-1 [1], the pEC50 was 6.51 and the fold induction at 10 µM is 4.5. This molecule showed a negative logarithm of the IC50 (pIC50) at SFRP-1 [2] of 6.92.

As to `CC(C)c1ccc(S(=O)(=O)c2ccc(F)cc2)cc1S(=O)(=O)NC1CCSCC1` [Example 815, 5-[(4-fluorophenyl)sulfonyl]-2-isopropyl-N-(tetrahydro-2H-thiopyran-4-yl)benzenesulfonamide], the fold induction at 10 µM at SFRP-1 [1] amounted to 2.2. The same molecule showed a pIC50 on SFRP-1 [2] of 5.74.

Regarding `O=S(=O)(NCCn1ccnc1)c1cc(S(=O)(=O)c2ccc(F)cc2)ccc1C(F)(F)F` [Example 816, 5-[(4-fluorophenyl)sulfonyl]-N-[2-(1H-imidazol-1-yl)ethyl]-2-(trifluoromethyl)benzenesulfonamide], on SFRP-1 [1], the pEC50 was 5.82 and the fold induction at 10 µM amounted to 3.8. This molecule gave a negative-log IC50 (pIC50) at SFRP-1 [2] of 6.57.

As to `O=S(=O)(NC1CCOCC1)c1cc(S(=O)(=O)c2ccc(F)cc2)ccc1C(F)(F)F` [Example 817, 5-[(4-fluorophenyl)sulfonyl]-N-(tetrahydro-2H-pyran-4-yl)-2-(trifluoromethyl)benzenesulfonamide], on SFRP-1 [1], the pEC50 was 5.94 and the fold induction at 10 µM worked out at 3.3. On SFRP-1 [2], this molecule had a negative logarithm of the IC50 (pIC50) of 6.52.

With `CC(C)(C)OC(=O)N1CCC(NS(=O)(=O)c2cc(S(=O)(=O)c3ccc(F)cc3)ccc2C(F)(F)F)CC1` [Example 818, tert-butyl 4-({[5-[(4-fluorophenyl)sulfonyl]-2-(trifluoromethyl)phenyl]sulfonyl}amino)piperidine-1-carboxylate], at SFRP-1 [1], the pEC50 was 5.88 and the fold induction at 10 µM is 2.6. On SFRP-1 [2], this molecule had a pIC50 of 6.52.

`CN(CCNS(=O)(=O)c1cc(S(=O)(=O)c2ccccc2)ccc1C(F)(F)F)C(=O)c1ccccc1` [Example 819, N-Methyl-N-[2-({[5-(phenylsulfonyl)-2-(trifluoromethyl)phenyl]sulfonyl}amino)ethyl]benzamide]: on SFRP-1 [1], the negative logarithm of the EC50 (pEC50) was 5.80 and the fold induction at 10 µM is 3.3. Besides, the negative-log IC50 (pIC50) on SFRP-1 [2] is 6.66.

Take `COc1ccc(S(=O)(=O)c2ccc(C(F)(F)F)c(S(=O)(=O)NCCC#N)c2)cc1` [Example 820, N-(2-cyanoethyl)-5-[(4-methoxyphenyl)sulfonyl]-2-(trifluoromethyl)benzenesulfonamide]: at SFRP-1 [1], the pEC50 is 6.10 and the fold induction at 10 µM was 4.1. In addition, the pIC50 on SFRP-1 [2] is 6.60.

Turning to `N#CCCNS(=O)(=O)c1cc(S(=O)(=O)c2ccc(O)cc2)ccc1C(F)(F)F` [Example 821, N-(2-cyanoethyl)-5-[(4-hydroxyphenyl)sulfonyl]-2-(trifluoromethyl)benzenesulfonamide], on SFRP-1 [1], the negative-log EC50 (pEC50) was 6.20 and the fold induction at 10 µM was 5.1. At SFRP-1 [2], this molecule showed a negative-log IC50 (pIC50) of 6.52.

For the molecule `COc1ccc(C(=O)N(C)CCNS(=O)(=O)c2cc(S(=O)(=O)c3ccccc3)ccc2C(F)(F)F)cc1` [Example 822, 4-Methoxy-N-methyl-N-[2-({[5-(phenylsulfonyl)-2-(trifluoromethyl)phenyl]sulfonyl}amino)ethyl]benzamide], at SFRP-1 [1], the pEC50 is 5.74 and the fold induction at 10 µM came out at 3.4. In addition, on SFRP-1 [2], the negative-log IC50 (pIC50) is 6.70.

In the case of `O=S(=O)(NC1c2ccccc2CC1O)c1cc(S(=O)(=O)c2ccccc2)ccc1C(F)(F)F` (stereo not shown) [Example 823, N-(2-hydroxy-2,3-dihydro-1H-inden-1-yl)-5-(phenylsulfonyl)-2-(trifluoromethyl)benzenesulfonamide], at SFRP-1 [1], the negative logarithm of the EC50 (pEC50) was 5.52 and the fold induction at 10 µM worked out at 2.6. The negative-log IC50 (pIC50) at SFRP-1 [2] is 6.10.

In the case of `CN(CCNS(=O)(=O)c1cc(S(=O)(=O)c2ccccc2)ccc1C(F)(F)F)C(=O)Nc1ccccc1` [Example 826, N-{2-[(anilinocarbonyl)(methyl)amino]ethyl}-5-(phenylsulfonyl)-2-(trifluoromethyl)benzenesulfonamide], at SFRP-1 [1], the negative-log EC50 (pEC50) was 5.72 and the fold induction at 10 µM amounted to 3.5. The molecule also gave a negative-log IC50 (pIC50) on SFRP-1 [2] of 6.15.

Regarding `CN(CCNS(=O)(=O)c1cc(S(=O)(=O)c2ccccc2)ccc1C(F)(F)F)C(=O)Nc1cccnc1` [Example 827, N-(2-{methyl[(pyridin-3-ylamino)carbonyl]amino}ethyl)-5-(phenylsulfonyl)-2-(trifluoromethyl)benzenesulfonamide], at SFRP-1 [1], the pEC50 is 5.77 and the fold induction at 10 µM came to 3.5. Moreover, at SFRP-1 [2], the negative logarithm of the IC50 (pIC50) was 6.60.

Turning to `COc1ccc(NC(=O)N(C)CCNS(=O)(=O)c2cc(S(=O)(=O)c3ccccc3)ccc2C(F)(F)F)c(OC)c1` [Example 828, N-{2-[{[(2,4-dimethoxyphenyl)amino]carbonyl}(methyl)amino]ethyl}-5-(phenylsulfonyl)-2-(trifluoromethyl)benzenesulfonamide], at SFRP-1 [1], the negative-log EC50 (pEC50) is 5.63 and the fold induction at 10 µM came to 2.8. Further, on SFRP-1 [2], the negative logarithm of the IC50 (pIC50) was 6.52.

Turning to `CN(CCNS(=O)(=O)c1cc(S(=O)(=O)c2ccccc2)ccc1C(F)(F)F)C(=O)NC(C)(C)C` [Example 829, N-{2-[[(tert-butylamino)carbonyl](methyl)amino]ethyl}-5-(phenylsulfonyl)-2-(trifluoromethyl)benzenesulfonamide], on SFRP-1 [1], the pEC50 was 5.88 and the fold induction at 10 µM was found to be 2.7. Besides, the pIC50 on SFRP-1 [2] is 6.40.
